Experimental data from publication PMC3938192 (ACS chemical biology, 2013).
Substitutions are numbered along the chain they refer to.

Experiments:
Assay type in all cases: cell-based
Pkd1-WT = biological target: T1, Pkd1-WT (Mus musculus, UniProt Q62101); assay: Pkd1-WT autophosphorylation in transfected HEK 293T cells; conditions: 1 µM
T1 sequence (Q62101 1-918): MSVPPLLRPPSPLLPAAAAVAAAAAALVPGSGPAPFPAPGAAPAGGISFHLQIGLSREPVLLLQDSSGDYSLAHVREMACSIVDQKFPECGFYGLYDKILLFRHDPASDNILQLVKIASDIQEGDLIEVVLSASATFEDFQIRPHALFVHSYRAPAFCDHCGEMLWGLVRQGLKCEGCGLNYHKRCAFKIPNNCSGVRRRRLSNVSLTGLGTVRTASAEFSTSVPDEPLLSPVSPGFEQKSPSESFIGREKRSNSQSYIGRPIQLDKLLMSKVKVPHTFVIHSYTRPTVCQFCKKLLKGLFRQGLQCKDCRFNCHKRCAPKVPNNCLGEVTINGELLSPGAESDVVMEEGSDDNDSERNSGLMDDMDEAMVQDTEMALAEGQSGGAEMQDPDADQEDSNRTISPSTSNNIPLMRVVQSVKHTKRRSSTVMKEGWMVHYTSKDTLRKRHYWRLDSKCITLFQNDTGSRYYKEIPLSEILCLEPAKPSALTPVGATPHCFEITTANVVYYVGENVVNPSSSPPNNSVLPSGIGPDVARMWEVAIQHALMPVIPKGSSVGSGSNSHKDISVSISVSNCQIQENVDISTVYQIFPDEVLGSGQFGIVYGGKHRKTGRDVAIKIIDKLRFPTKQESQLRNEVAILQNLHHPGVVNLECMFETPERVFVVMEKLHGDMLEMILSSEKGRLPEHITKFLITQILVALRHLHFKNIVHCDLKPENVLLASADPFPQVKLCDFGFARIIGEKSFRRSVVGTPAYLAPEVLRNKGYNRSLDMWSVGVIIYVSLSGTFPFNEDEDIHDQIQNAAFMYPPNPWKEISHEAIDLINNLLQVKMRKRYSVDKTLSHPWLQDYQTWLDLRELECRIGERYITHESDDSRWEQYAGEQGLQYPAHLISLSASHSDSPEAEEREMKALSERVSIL

Venus-Pkd1-WT = biological target: T2, Venus-Pkd1-WT (Mus musculus, UniProt Q62101); assay: Puncta formation of Venus-Pkd1-WT in neurons; conditions: 1 µM, one hour of inhibitor treatment
T2 sequence (Q62101 1-918): T1 sequence (Q62101 1-918)

Venus-Pkd1-AS2 = biological target: T3, Venus-Pkd1-AS2 (Mus musculus, UniProt Q62101, M665A); assay: Puncta formation of Venus-Pkd1-AS2 in neurons; conditions: 1 µM, one hour of inhibitor treatment
T3 sequence (Q62101 1-918 M665A): T1 sequence (Q62101 1-918) with M665A

Pkd1-AS2 (M665A) = biological target: T4, Pkd1-AS2 (M665A) (Mus musculus, UniProt Q62101, M665A); assay: Pkd1-AS2 autophosphorylation in transfected HEK 293T cells; conditions: 1 µM
T4 sequence (Q62101 1-918 M665A): T1 sequence (Q62101 1-918) with M665A

CC(C)(C)n1nc(-c2cccc3ccccc23)c2c(N)ncnc21 [1NA-PP1]
effect on autophosphorylation by Pkd1-WT (Pkd1-WT): but not the wild type kinase | puncta formation, Venus-Pkd1-WT neurons (Venus-Pkd1-WT): unaffected | puncta formation, Venus-Pkd1-AS2 neurons (Venus-Pkd1-AS2): forming discrete puncta | effect on autophosphorylation by Pkd1-AS2 (Pkd1-AS2 (M665A)): completely abrogates autophosphorylation
